According to patent US20250382332A1, “NOVEL ALPHA-FACTOR BASED PEPTIDES WITH ANTIFUNGAL ACTIVITY” (INVAIO SCIENCES, INC., priority 2024, published 2025):
Peptide text beside a SMILES is read from it.

Tested on: Botrytis cinerea (B05.10)
Test: Resazurin antifungal assay of 23 alpha-factor peptides (dimers, hybrids) towards Botrytis (Example 15, Table 6)
Type: cell-based
Conditions: resazurin assay, % inhibition of fungal growth, Botrytis cinerea B05.10; for Inhibition at 10 μM: peptide 10 μM; for Inhibition at 20 μM: peptide 20 μM; for Inhibition at 50 μM: peptide 50 μM
Description: The antifungal activity of […] alpha-factor peptide variants towards Botrytis was tested. Experimental design:
Peptides corresponding to SEQ ID NO: 261-264 and 401-420 were chemically synthesized using the solid-phase synthesis method and resuspended in water to a stock solution of 1 mM. The stock solution was aliquoted in cryovials and stored at −80° C.
The Botrytis cinerea culture (B05.10) isolate was acquired from the Centraalbureau voor Schimmelcultures, the Netherlands. The Botrytis fungus was propagated on 0.5% V8 agar plates (200 ml V8 Juice, 3 g CaCO3, 15 g agar, 800-ml millipore water) at 20° C., in a 12 h photoperiod for 21 days.
Fungal conidia were harvested by scraping a Botrytis plate flooded with 1 ml water with 0.1% Tween 80 solution. Conidia were then collected in a 50 ml falcon tube by passing the solution through a 40 micron filter. The solution was then centrifuged at 6000 rpm and the pellet was resuspended in 1 ml of 20% glycerol. The conidia concentration of the resulting solution was counted using a hemocytometer. The stock was diluted to […] using 20% glycerol and frozen in 100 μl aliquots in −80° C. until further use.
Peptides were tested for activity against Botrytis, using the resazurin assay. For this, fungal stock conidia was first diluted to 5000 conidia/well. 50 μl of the spore suspension was added to each well of the sterile 96-well clear bottom testing plate and mixed with 50 μl of peptide solutions to a final concentration of 100, 50, 20, 10, 5 and 2.5 μM. The plate was incubated for 24 h at 20° C. After 24 h, 10 μl of resazurin dye was added to the microtiter plate and incubated again for […]. Fluorescence was measured at 570/620 nm after 4 h of incubation with resazurin.
Growth inhibition was calculated by subtracting the fluorescence values of conidia only wells from sample wells and depicted as % inhibition of fungal growth. Four technical replicates were used for all treatments.

Row | SMILES | Inhibition at 2.5 μM (peptide 2.5 μM) [%] | Inhibition at 5 μM (peptide 5 μM) [%] | Inhibition at 10 μM [%] | Inhibition at 20 μM [%] | Inhibition at 50 μM [%]
1 | CSCC[C@H](NC(=O)[C@@H]1CCCN1C(=O)[C@H](CCC(N)=O)NC(=O)CNC(=O)[C@@H]1CCCN1C(=O)[C@H](CCCCN)NC(=O)[C@H](Cc1ccccc1)NC(=O)[C@H](CCCNC(=N)N)NC(=O)[C@H](CC(C)C)NC(=O)[C@H](Cc1ccc(O)cc1)NC(=O)[C@H](Cc1c[nH]cn1)NC(=O)[C@@H](N)CCCCN)C(=O)N[C@@H](Cc1ccc(O)cc1)C(=O)O [compound 403] (H-KHYLRFKPGQPMY-OH; N-terminus and C-terminus assumed) | <90 | <90 | 96.0 | 100 | 100
2 | CSCC[C@H](NC(=O)[C@@H]1CCCN1C(=O)[C@H](CCC(N)=O)NC(=O)CNC(=O)[C@@H]1CCCN1C(=O)[C@H](Cc1c[nH]c2ccccc12)NC(=O)[C@H](CC(C)C)NC(=O)[C@H](CCCNC(=N)N)NC(=O)[C@H](CC(C)C)NC(=O)[C@H](CO)NC(=O)[C@H](Cc1c[nH]cn1)NC(=O)[C@@H](N)CCCCN)C(=O)N[C@@H](Cc1ccc(O)cc1)C(=O)O [compound 404] (H-KHSLRLWPGQPMY-OH; N-terminus and C-terminus assumed) | – | – | <90 | <90 | 100
3 | CSCC[C@H](NC(=O)[C@@H]1CCCN1C(=O)[C@H](CCC(N)=O)NC(=O)CNC(=O)[C@@H]1CCCN1C(=O)[C@H](Cc1ccccc1)NC(=O)[C@H](CC(C)C)NC(=O)[C@@H](NC(=O)[C@H](CC(C)C)NC(=O)[C@H](Cc1c[nH]c2ccccc12)NC(=O)[C@H](Cc1c[nH]cn1)NC(=O)[C@@H](N)CCCCN)[C@@H](C)O)C(=O)N[C@@H](Cc1ccc(O)cc1)C(=O)O [compound 405] (H-KHWLTLFPGQPMY-OH; N-terminus and C-terminus assumed) | – | – | – | – | <90
4 | CSCC[C@H](NC(=O)[C@@H]1CCCN1C(=O)[C@H](CCC(N)=O)NC(=O)CNC(=O)[C@H](CCCNC(=N)N)NC(=O)[C@H](CC(=O)O)NC(=O)[C@H](CC(C)C)NC(=O)[C@H](CCC(N)=O)NC(=O)[C@H](CC(C)C)NC(=O)[C@H](Cc1c[nH]c2ccccc12)NC(=O)[C@H](CCC(N)=O)NC(=O)[C@@H](N)Cc1c[nH]c2ccccc12)C(=O)N[C@@H](Cc1ccc(O)cc1)C(=O)O [compound 406] (H-WQWLQLDRGQPMY-OH; N-terminus and C-terminus assumed) | – | – | – | – | <90
5 | CC[C@H](C)[C@H](NC(=O)[C@H](CCC(N)=O)NC(=O)[C@H](CC(C)C)NC(=O)[C@H](CO)NC(=O)[C@H](Cc1c[nH]cn1)NC(=O)[C@@H](N)Cc1c[nH]c2ccccc12)C(=O)N[C@@H](CCCCN)C(=O)N[C@@H](CCCCN)C(=O)NCC(=O)N[C@@H](CCC(N)=O)C(=O)N1CCC[C@H]1C(=O)N[C@@H](CCSC)C(=O)N[C@@H](Cc1ccc(O)cc1)C(=O)O [compound 407] (H-WHSLQIKKGQPMY-OH; N-terminus and C-terminus assumed) | – | – | <90 | <90 | 100
6 | CSCC[C@H](NC(=O)[C@@H]1CCCN1C(=O)[C@H](CCC(N)=O)NC(=O)CNC(=O)[C@H](Cc1c[nH]c2ccccc12)NC(=O)[C@H](CC(N)=O)NC(=O)[C@H](Cc1ccccc1)NC(=O)[C@H](CCC(N)=O)NC(=O)[C@H](CC(C)C)NC(=O)[C@H](CC(C)C)NC(=O)[C@H](Cc1c[nH]cn1)NC(=O)[C@@H](N)Cc1c[nH]c2ccccc12)C(=O)N[C@@H](Cc1ccc(O)cc1)C(=O)O [compound 408] (H-WHLLQFNWGQPMY-OH; N-terminus and C-terminus assumed) | – | – | <90 | <90 | 100
